Laboratory results: US6060516A, “N^1 -propargylhydrazines, N^2 -propargylhydrazines and their analogs for the treatment of depression, anxiety and neurodegeneration” (CV Technologies, Inc., priority 1998, dated 2000)

What was measured:
[1] = tested on: valine, alanine and gamma-aminobutyric acid (GABA) concentrations in rat brain; assay: Brain valine, alanine and gamma-aminobutyric acid (GABA) concentrations; type: in vivo
Procedure: Effects of various doses of CVT-P040, CVT-P041 and phenelzine on the concentrations of some brain amino acids were evaluated by examining concentrations of gamma-aminobutyric acid (GABA) 5 hours after the injection of the drug. Briefly, rats were injected with CVT-P040 ([…]), vehicle, or phenelzine (150 μmol/kg) and killed 3 or 5 hours later. The brains were removed and divided in half. One half of the brain was frozen in isopentane on dry ice and retained for estimates of GABA concentrations. GABA and other amino acid concentrations were estimated using the method of Wong, J. T. F., Baker, G. B. and Coutts, R. T. (1990), A rapid, sensitive assay for γ-aminobutyric acid in brain using electron-capture gas chromatography, Res. Comm. Chem. Path. Pharmacol. 70: 115-122.

[2] = target: T1, rat brain monoamine oxidase-A (Rattus norvegicus, UniProt P21396); assay: Monoamine oxidase-A inhibiting activity in vitro (radiochemical, 5-hydroxytryptamine substrate, rat brain homogenate); type: biochemical
T1 construct: appropriately diluted homogenates of rat brain or liver; from tissue; host or cells: rat brain or liver homogenate
T1 sequence (P21396 1-526): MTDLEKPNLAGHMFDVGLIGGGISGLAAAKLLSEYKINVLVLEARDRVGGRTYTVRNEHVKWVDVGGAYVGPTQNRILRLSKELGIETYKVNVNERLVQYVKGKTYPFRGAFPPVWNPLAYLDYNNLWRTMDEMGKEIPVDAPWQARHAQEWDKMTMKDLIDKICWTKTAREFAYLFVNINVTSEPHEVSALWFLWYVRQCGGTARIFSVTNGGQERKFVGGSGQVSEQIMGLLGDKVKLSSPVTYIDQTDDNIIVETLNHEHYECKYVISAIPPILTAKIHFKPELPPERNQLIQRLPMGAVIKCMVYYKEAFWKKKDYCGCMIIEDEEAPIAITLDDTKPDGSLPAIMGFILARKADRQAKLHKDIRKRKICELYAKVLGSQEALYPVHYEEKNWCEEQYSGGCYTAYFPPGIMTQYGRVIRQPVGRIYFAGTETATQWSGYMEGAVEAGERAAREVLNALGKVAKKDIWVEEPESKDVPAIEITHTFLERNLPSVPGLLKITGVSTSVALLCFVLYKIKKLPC
Procedure: Radiolabelled 5-hydroxytryptamine was used as the substrate for monoamine oxidase-A. Various concentrations of the compounds were incubated in appropriately diluted homogenates of rat brain or liver in a 0.2 M potassium phosphate buffer. Incubations proceeded at 37° C. for 10 minutes. Incubation was terminated by the addition of acid and the radiolabelled product (5-hydroxyindoleacetic acid) was extracted and quantified by liquid scintillation counting procedures. Incubations were done in triplicate and incubations containing phenelzine were included for comparison. The percent inhibition of monoamine oxidase-A activity compared to controls without the compounds of the present invention was calculated.

[3] = tested on: NA, DA, 5-HT, 5-HIAA and DOPAC concentrations in rat hypothalamus; assay: Rat hypothalamus amine and amine metabolite concentrations; type: in vivo
Procedure: The effects of various doses of CVT-P040 on the concentrations of hypothalamus amine neurotransmitters and their metabolites were evaluated by examining concentrations of noradrenaline (NA), dopamine (DA), 5-hydroxytryptamine (5-HT), 5-hydroxyindoleacetic acid (5-HIAA) and 3,4-dihydroxyphenylacetic acid (DOPAC) in rat hypothalami 5 hours after the injection of the drug. […] The brains were removed and divided in half. One half of the brain was frozen in isopentane on dry ice and retained for estimates of amino acid neurotransmitter concentrations. The other half had the hypothalamus removed and frozen on dry ice for later estimates of amines and their metabolites according to the method of Sloley, B. D. and Goldberg J. I. (1991), Determination of γ-glutamyl conjugates of monoamines by means of high-performance liquid chromatography with electrochemical detection and application to gastropod tissues, J. Chromatog. 567: 49-56. The rest of the brain was frozen on dry ice for ex vivo examination of MAO activity as described earlier.

[4] = tested on: rat brain and liver monoamine oxidase-B; assay: Monoamine oxidase-B inhibiting activity ex vivo; type: in vivo
Procedure: (§1) Radiolabelled β-phenylethylamine was employed as a substrate for monoamine oxidase-B. The compounds of interest were either injected intraperitoneally in DMSO or administered by gavage in water for various periods. The animals were killed by decapitation and the brains and livers immediately removed and frozen until assayed for monoamine oxidase-B activity. Tissues were homogenized and appropriately diluted in buffer prior to incubation. Incubations proceeded at 37° C. for 10 minutes. Incubation was terminated by the addition of acid and the radiolabelled product (phenylacetic acid) was extracted and quantified by liquid scintillation counting procedures. Incubations were done in triplicate and incubations containing phenelzine were included for comparison. The percent inhibition of monoamine oxidase-B activity compared to controls containing no drug was calculated.
(§2) Values are the mean ± the standard error based on (n) determinations.
(§3) Oral doses were administered as 75 μmol/kg on day 1, 75 μmol/kg on
(§4) day 2 and the animals were killed 5 hours later.

[5] = tested on: rat brain and liver monoamine oxidase-A; assay: Monoamine oxidase-A inhibiting activity ex vivo; type: in vivo
Procedure: as §1, with “5-hydroxytryptamine” for “β-phenylethylamine”, “used” for “employed”, “oxidase-A.” for “oxidase-B.”, “intraperitonealy” for “intraperitoneally”, “oxidase-A” for “oxidase-B”, “(5-hydroxyindoleacetaldehyde and 5-hydroxyindoleacetic” for “(phenylacetic”
as §2, §3, §4

SMILES: C#CCN(N)CCc1ccccc1 [CVT-P040, N^1 -propargylphenelzine]
- GABA ([1]; 150 μmol/kg, 5 hr, ip): 270 ± 23 µg/g
- Valine ([1]; 150 μmol/kg, 5 hr, ip): 22.9 ± 1.4 µg/g
- GABA concentrations ([1]; doses as high as 150 μmol/kg, in words): did not elevate GABA concentrations
- elevation of alanine ([1]; in words): elevation of alanine was not seen
- inhibition at 100 µM ([2]; 1 × 10^-4 M): 99.5%
- inhibition at 10 µM ([2]; 1 × 10^-5 M): 99.1%
- inhibition at 1 µM ([2]; 1 × 10^-6 M): 71.1%
- inhibition at 0.1 µM ([2]; 1 × 10^-7 M): 20.6%
- inhibition at 0.01 µM ([2]; 1 × 10^-8 M): 0.7%
- 5-HIAA ([3]; 0.58 μmol/kg, 5 hr, ip): 350 ± 28 ng/g
- 5-HT ([3]; 0.58 μmol/kg, 5 hr, ip): 652 ± 69 ng/g
- DA ([3]; 0.58 μmol/kg, 5 hr, ip): 716 ± 82 ng/g
- DOPAC ([3]; 0.58 μmol/kg, 5 hr, ip): 77 ± 9 ng/g
- NA ([3]; 0.58 μmol/kg, 5 hr, ip): 1155 ± 81 ng/g
- 5-HIAA ([3]; 5.75 μmol/kg, 5 hr, ip): 327 ± 26 ng/g
- 5-HT ([3]; 5.75 μmol/kg, 5 hr, ip): 634 ± 58 ng/g
- DA ([3]; 5.75 μmol/kg, 5 hr, ip): 717 ± 85 ng/g
- DOPAC ([3]; 5.75 μmol/kg, 5 hr, ip): 80 ng/g
- NA ([3]; 5.75 μmol/kg, 5 hr, ip): 1332 ± 98 ng/g
- 5-HIAA ([3]; 57.5 μmol/kg, 5 hr, ip): 294 ± 22 ng/g
- 5-HT ([3]; 57.5 μmol/kg, 5 hr, ip): 1324 ng/g
- DA ([3]; 57.5 μmol/kg, 5 hr, ip): 753 ± 99 ng/g
- DOPAC ([3]; 57.5 μmol/kg, 5 hr, ip): 49 ng/g
- NA ([3]; 57.5 μmol/kg, 5 hr, ip): 1672 ± 82 ng/g
- 5-HIAA ([3]; 150 μmol/kg, 5 hr, ip): 131 ± 8 ng/g
- 5-HT ([3]; 150 μmol/kg, 5 hr, ip): 1497 ng/g
- DA ([3]; 150 μmol/kg, 5 hr, ip): 522 ± 28 ng/g
- DOPAC ([3]; 150 μmol/kg, 5 hr, ip): 45 ± 4 ng/g
- NA ([3]; 150 μmol/kg, 5 hr, ip): 2050 ± 202 ng/g
- 5-HIAA ([3]; 173 μmol/kg, 5 hr, ip): 148 ± 10 ng/g
- 5-HT ([3]; 173 μmol/kg, 5 hr, ip): 1509 ng/g
- DA ([3]; 173 μmol/kg, 5 hr, ip): 865 ± 19 ng/g
- DOPAC ([3]; 173 μmol/kg, 5 hr, ip): 30 ng/g
- NA ([3]; 173 μmol/kg, 5 hr, ip): 1867 ± 253 ng/g
- 5-HIAA ([3]; 2 × 75 μmol/kg per os): 197 ng/g
- 5-HT ([3]; 2 × 75 μmol/kg per os): 1215 ± 36 ng/g
- DA ([3]; 2 × 75 μmol/kg per os): 487 ± 47 ng/g
- DOPAC ([3]; 2 × 75 μmol/kg per os): 50 ± 3 ng/g
- NA ([3]; 2 × 75 μmol/kg per os): 2230 ± 101 ng/g
- 5-HIAA concentrations ([3]; dose dependent, in words): significantly reduced 5-HIAA and DOPAC concentrations
- 5-HT concentrations ([3]; dose dependent, in words): significantly elevated 5-HT and NA concentrations
- DOPAC concentrations ([3]; dose dependent, in words): significantly reduced 5-HIAA and DOPAC concentrations
- NA concentrations ([3]; dose dependent, in words): significantly elevated 5-HT and NA concentrations
- reduction in 5-hydroxyindoleacetic acid concentrations compared with phenelzine ([3]; equivalent doses, in words): comparable to that determined with equivalent doses of phenelzine
- % Inhibition of Monoamine Oxidase-B ([4]; brain, 0.58 μmol/kg, 5 hr, i.p. in 10% DMSO (Table 4, MAO-B by title)): -4.7 ± 2.0%
- % Inhibition of Monoamine Oxidase-B ([4]; brain, 5.75 μmol/kg, 5 hr, i.p. in 10% DMSO (Table 4, MAO-B by title)): 11.8 ± 5.1%
- % Inhibition of Monoamine Oxidase-B ([4]; brain, 57.5 μmol/kg, 5 hr, i.p. in 10% DMSO (Table 4, MAO-B by title)): 66.1 ± 6.9%
- % Inhibition of Monoamine Oxidase-B ([4]; brain, 150 μmol/kg, 5 hr, i.p. in 10% DMSO (Table 4, MAO-B by title)): 85.5 ± 1.7%
- % Inhibition of Monoamine Oxidase-B ([4]; brain, 173 μmol/kg, 5 hr, i.p. in 10% DMSO (Table 4, MAO-B by title)): 93.2 ± 0.8%
- % Inhibition of Monoamine Oxidase-B ([4]; brain, 2 × 75 μmol/kg per os (Table 4, MAO-B by title)): 85.4 ± 2.1%
- % Inhibition of Monoamine Oxidase-B ([4]; liver, 0.58 μmol/kg, 5 hr, i.p. in 10% DMSO (Table 4, MAO-B by title)): 1.1 ± 5.4%
- % Inhibition of Monoamine Oxidase-B ([4]; liver, 5.75 μmol/kg, 5 hr, i.p. in 10% DMSO (Table 4, MAO-B by title)): 29.3 ± 2.8%
- % Inhibition of Monoamine Oxidase-B ([4]; liver, 57.5 μmol/kg, 5 hr, i.p. in 10% DMSO (Table 4, MAO-B by title)): 64.0 ± 5.5%
- % Inhibition of Monoamine Oxidase-B ([4]; liver, 173 μmol/kg, 5 hr, i.p. in 10% DMSO (Table 4, MAO-B by title)): 87.9 ± 1.0%
- % Inhibition of Monoamine Oxidase-B ([4]; liver, 2 × 75 μmol/kg per os (Table 4, MAO-B by title)): 82.3 ± 2.3%
- % Inhibition Monoamine Oxidase-A ([5]; brain, 0.58 μmol/kg, 5 hr, i.p. in 10% DMSO): 7.2 ± 5.1%
- % Inhibition Monoamine Oxidase-A ([5]; brain, 5.75 μmol/kg, 5 hr, i.p. in 10% DMSO): 9.1 ± 4.9%
- % Inhibition Monoamine Oxidase-A ([5]; brain, 57.5 μmol/kg, 5 hr, i.p. in 10% DMSO): 86.6 ± 6.7%
- % Inhibition Monoamine Oxidase-A ([5]; brain, 150 μmol/kg, 5 hr, i.p. in 10% DMSO): 96.7 ± 0.6%
- % Inhibition Monoamine Oxidase-A ([5]; brain, 173 μmol/kg, 5 hr, i.p. in 10% DMSO): 98.4 ± 0.1%
- % Inhibition Monoamine Oxidase-A ([5]; brain, 2 × 75 μmol/kg per os (day 1 and day 2, killed 5 hours later)): 96.9 ± 0.8%
- % Inhibition Monoamine Oxidase-A ([5]; liver, 0.58 μmol/kg, 5 hr, i.p. in 10% DMSO): -6.1 ± 4.4%
- % Inhibition Monoamine Oxidase-A ([5]; liver, 5.75 μmol/kg, 5 hr, i.p. in 10% DMSO): 43.7 ± 5.4%
- % Inhibition Monoamine Oxidase-A ([5]; liver, 57.5 μmol/kg, 5 hr, i.p. in 10% DMSO): 91.7 ± 2.3%
- % Inhibition Monoamine Oxidase-A ([5]; liver, 173 μmol/kg, 5 hr, i.p. in 10% DMSO): 97.7 ± 0.3%
- % Inhibition Monoamine Oxidase-A ([5]; liver, 2 × 75 μmol/kg per os (day 1 and day 2, killed 5 hours later)): 95.4 ± 0.7%
